According to ChEMBL document CHEMBL6109073, “Discovery of β-amino acid substituted naphthalene sulfonamide derivatives as potent Kelch-like ECH-associated protein 1-nuclear factor erythroid 2-related factor 2 (Keap1-Nrf2) protein-protein interaction inhibitors for ulcerative colitis management” (Eur J Med Chem, 2025):

Target: Keap1/Nrf2 (Homo sapiens, UniProt Q14145)
Sequence (Q16236 whole entry): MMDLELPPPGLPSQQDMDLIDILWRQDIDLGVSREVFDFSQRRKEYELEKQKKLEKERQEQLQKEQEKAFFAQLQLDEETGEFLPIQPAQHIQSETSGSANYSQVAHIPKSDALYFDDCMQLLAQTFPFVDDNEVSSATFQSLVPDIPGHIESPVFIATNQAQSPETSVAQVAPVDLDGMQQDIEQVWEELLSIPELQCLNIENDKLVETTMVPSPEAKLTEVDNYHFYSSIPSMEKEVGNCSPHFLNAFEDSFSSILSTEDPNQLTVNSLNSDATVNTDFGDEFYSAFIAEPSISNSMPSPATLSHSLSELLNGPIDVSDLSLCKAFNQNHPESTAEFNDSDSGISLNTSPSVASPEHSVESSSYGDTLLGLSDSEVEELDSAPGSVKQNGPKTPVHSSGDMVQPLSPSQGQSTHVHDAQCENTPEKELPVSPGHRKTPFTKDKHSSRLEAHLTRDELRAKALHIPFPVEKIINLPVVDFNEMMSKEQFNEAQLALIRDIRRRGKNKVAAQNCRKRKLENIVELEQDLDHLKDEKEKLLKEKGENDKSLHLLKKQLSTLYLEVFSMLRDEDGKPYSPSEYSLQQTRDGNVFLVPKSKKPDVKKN
Sequence (Q14145 whole entry): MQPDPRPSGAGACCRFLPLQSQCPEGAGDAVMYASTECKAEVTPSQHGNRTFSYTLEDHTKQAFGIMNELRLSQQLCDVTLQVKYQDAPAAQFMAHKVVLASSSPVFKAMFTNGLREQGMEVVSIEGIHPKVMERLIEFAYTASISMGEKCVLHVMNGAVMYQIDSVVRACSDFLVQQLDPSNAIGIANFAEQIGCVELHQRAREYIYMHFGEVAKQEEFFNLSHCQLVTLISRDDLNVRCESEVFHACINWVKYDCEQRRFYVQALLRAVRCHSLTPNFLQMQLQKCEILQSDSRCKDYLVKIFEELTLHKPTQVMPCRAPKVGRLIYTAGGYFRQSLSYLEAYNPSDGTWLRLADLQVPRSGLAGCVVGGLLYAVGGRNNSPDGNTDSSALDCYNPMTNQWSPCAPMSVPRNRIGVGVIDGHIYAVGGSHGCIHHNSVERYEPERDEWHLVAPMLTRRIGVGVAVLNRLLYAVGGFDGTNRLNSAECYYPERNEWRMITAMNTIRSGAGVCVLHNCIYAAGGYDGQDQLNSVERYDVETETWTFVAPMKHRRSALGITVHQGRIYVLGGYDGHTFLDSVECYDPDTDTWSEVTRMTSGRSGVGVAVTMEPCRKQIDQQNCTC
Description: Inhibition of Keap1 kelch domain (322 to 609 residues) (unknown origin)/Nrf2 (unknown origin) protein-protein interaction incubated for 30 mins by fluorescence polarization assay

| SMILES | IC50 [µM] |
| --- | --- |
| C[C@@H](CC(=O)O)Nc1ccc(N(CC(=O)O)S(=O)(=O)c2ccc(C(F)(F)F)cc2)c2ccccc12 | 16.5 |
| Cc1cc(C)c(S(=O)(=O)Nc2ccc(N[C@@H](C)CC(=O)O)c3ccccc23)c(C)c1 | 2.28 |
| COc1ccc(S(=O)(=O)Nc2ccc(N[C@@H](CC(=O)O)c3ccccc3)c3ccccc23)cc1 | > 50 |
| C[C@@H](CC(=O)O)Nc1ccc(NS(=O)(=O)c2ccc(C(C)(C)C)cc2)c2ccccc12 | > 50 |
| C[C@@H](CC(=O)O)Nc1ccc(N(CC(=O)O)S(=O)(=O)c2ccc(C(C)(C)C)cc2)c2ccccc12 | 10.1 |
| C[C@@H](CC(=O)O)Nc1ccc(NS(=O)(=O)c2ccc(F)cc2)c2ccccc12 | > 50 |
| Cc1cc(C)c(C)c(S(=O)(=O)Nc2ccc(N[C@@H](C)CC(=O)O)c3ccccc23)c1C | 6.64 |
| CCOc1ccc(S(=O)(=O)Nc2ccc(N[C@@H](C)CC(=O)O)c3ccccc23)cc1 | 33.4 |
| C[C@@H](CC(=O)O)Nc1ccc(NS(=O)(=O)c2ccc(Cl)cc2)c2ccccc12 | > 50 |
| C[C@@H](CC(=O)O)Nc1ccc(N(CC(=O)O)S(=O)(=O)c2ccc(F)cc2)c2ccccc12 | 23.7 |

Now from value to compound:

| IC50 [µM] | SMILES |
| --- | --- |
| 1.61 | Cc1cc(C)c(C)c(S(=O)(=O)N(CC(=O)O)c2ccc(N[C@@H](C)CC(=O)O)c3ccccc23)c1C |
| 10.6 | C[C@@H](CC(=O)O)Nc1ccc(N(CC(=O)O)S(=O)(=O)c2ccc(Cl)cc2)c2ccccc12 |
| 13.9 | COc1ccc(S(=O)(=O)N(CC(=O)O)c2ccc(N[C@@H](CC(=O)O)c3ccccc3)c3ccccc23)cc1 |
| 8.21 | COc1ccc(S(=O)(=O)N(CC(=O)O)c2ccc(N[C@@H](C)CC(=O)O)c3ccccc23)cc1 |
| > 50 | COc1ccc(S(=O)(=O)Nc2ccc(N[C@@H](C)CC(=O)O)c3ccccc23)cc1 |
| 47.6 | C[C@@H](CC(=O)O)Nc1ccc(NS(=O)(=O)c2ccc(C(F)(F)F)cc2)c2ccccc12 |
| 44 | Cc1ccc(S(=O)(=O)Nc2ccc(N[C@@H](C)CC(=O)O)c3ccccc23)cc1 |
| 7.14 | Cc1ccc(S(=O)(=O)N(CC(=O)O)c2ccc(N[C@@H](C)CC(=O)O)c3ccccc23)cc1 |
| 8.82 | CCOc1ccc(S(=O)(=O)N(CC(=O)O)c2ccc(N[C@@H](C)CC(=O)O)c3ccccc23)cc1 |
